{"source": "PubChem BioAssay (NCI)", "experiment_in_all_cases": "growth of human tumour cells (NCI), 48 h", "key": {"786-0 renal": {"tested_on": "786-0 renal"}, "A498 renal": {"tested_on": "A498 renal"}, "A549 NSCLC": {"tested_on": "A549 NSCLC"}, "ACHN renal": {"tested_on": "ACHN renal"}, "BT-549 breast": {"tested_on": "BT-549 breast"}, "CAKI-1 renal": {"tested_on": "CAKI-1 renal"}, "CCRF-CEM leukemia": {"tested_on": "CCRF-CEM leukemia"}, "COLO 205 colon": {"tested_on": "COLO 205 colon"}, "DU-145 prostate": {"tested_on": "DU-145 prostate"}, "EKVX NSCLC": {"tested_on": "EKVX NSCLC"}, "HCC-2998 colon": {"tested_on": "HCC-2998 colon"}, "HCT-116 colon": {"tested_on": "HCT-116 colon"}, "HCT-15 colon": {"tested_on": "HCT-15 colon"}, "HL-60(TB) leukemia": {"tested_on": "HL-60(TB) leukemia"}, "HOP-62 NSCLC": {"tested_on": "HOP-62 NSCLC"}, "HOP-92 NSCLC": {"tested_on": "HOP-92 NSCLC"}, "HS 578T breast": {"tested_on": "HS 578T breast"}, "HT29 colon": {"tested_on": "HT29 colon"}, "IGROV1 ovarian": {"tested_on": "IGROV1 ovarian"}, "K-562 leukemia": {"tested_on": "K-562 leukemia"}, "KM12 colon": {"tested_on": "KM12 colon"}, "LOX IMVI melanoma": {"tested_on": "LOX IMVI melanoma"}, "M14 melanoma": {"tested_on": "M14 melanoma"}, "MALME-3M melanoma": {"tested_on": "MALME-3M melanoma"}, "MCF7 breast": {"tested_on": "MCF7 breast"}, "MDA-MB-231 breast": {"tested_on": "MDA-MB-231 breast"}, "MDA-MB-435": {"tested_on": "MDA-MB-435"}, "MDA-N": {"tested_on": "MDA-N"}, "MOLT-4 leukemia": {"tested_on": "MOLT-4 leukemia"}, "NCI-H226 lung": {"tested_on": "NCI-H226 lung"}, "NCI-H23 lung": {"tested_on": "NCI-H23 lung"}, "NCI-H460 lung": {"tested_on": "NCI-H460 lung"}, "NCI-H522 lung": {"tested_on": "NCI-H522 lung"}, "NCI/ADR-RES ovarian": {"tested_on": "NCI/ADR-RES ovarian"}, "OVCAR-3 ovarian": {"tested_on": "OVCAR-3 ovarian"}, "OVCAR-4 ovarian": {"tested_on": "OVCAR-4 ovarian"}, "OVCAR-5 ovarian": {"tested_on": "OVCAR-5 ovarian"}, "OVCAR-8 ovarian": {"tested_on": "OVCAR-8 ovarian"}, "PC-3 prostate": {"tested_on": "PC-3 prostate"}, "RPMI-8226 leukemia": {"tested_on": "RPMI-8226 leukemia"}, "RXF 393 renal": {"tested_on": "RXF 393 renal"}, "SF-268 CNS": {"tested_on": "SF-268 CNS"}, "SF-295 CNS": {"tested_on": "SF-295 CNS"}, "SF-539 CNS": {"tested_on": "SF-539 CNS"}, "SK-MEL-2 melanoma": {"tested_on": "SK-MEL-2 melanoma"}, "SK-MEL-28 melanoma": {"tested_on": "SK-MEL-28 melanoma"}, "SK-MEL-5 melanoma": {"tested_on": "SK-MEL-5 melanoma"}, "SK-OV-3 ovarian": {"tested_on": "SK-OV-3 ovarian"}, "SN12C renal": {"tested_on": "SN12C renal"}, "SNB-19 CNS": {"tested_on": "SNB-19 CNS"}, "SNB-75 CNS": {"tested_on": "SNB-75 CNS"}, "SR leukemia": {"tested_on": "SR leukemia"}, "SW-620 colon": {"tested_on": "SW-620 colon"}, "T-47D breast": {"tested_on": "T-47D breast"}, "TK-10 renal": {"tested_on": "TK-10 renal"}, "U251 CNS": {"tested_on": "U251 CNS"}, "UACC-257 melanoma": {"tested_on": "UACC-257 melanoma"}, "UACC-62 melanoma": {"tested_on": "UACC-62 melanoma"}}, "note": "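Step 1: Grow cells in 96-well plates. Step 2: Expose to compound for 48 hours at 5 concentrations. Step 3: Interpolate endpoints linearly; if unreached, use highest concentration. GI50: concentration for 50% inhibition of growth. At the TGI there is no net growth.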", "data": [{"smiles": "CCOC(=O)c1c(-c2ccc(Cl)cc2)c(C#N)c(=S)n(C2OC(COC(C)=O)C(OC(C)=O)C(OC(C)=O)C2OC(C)=O)c1C", "note": "(stereo unspecified)", "values": [{"measurement": "TGI", "setting": "786-0 renal", "result": "> 100", "unit": "µM"}, {"measurement": "TGI", "setting": "A498 renal", "result": "> 100", "unit": "µM"}, {"measurement": "TGI", "setting": "A549 NSCLC", "result": "> 100", "unit": "µM"}, {"measurement": "TGI", "setting": "ACHN renal", "result": "> 100", "unit": "µM"}, {"measurement": "GI50", "setting": "BT-549 breast", "result": "> 100", "unit": "µM"}, {"measurement": "TGI", "setting": "BT-549 breast", "result": "> 100", "unit": "µM"}, {"measurement": "TGI", "setting": "CAKI-1 renal", "result": "> 100", "unit": "µM"}, {"measurement": "TGI", "setting": "CCRF-CEM leukemia", "result": "> 100", "unit": "µM"}, {"measurement": "TGI", "setting": "COLO 205 colon", "result": "> 100", "unit": "µM"}, {"measurement": "TGI", "setting": "DU-145 prostate", "result": "> 100", "unit": "µM"}, {"measurement": "TGI", "setting": "EKVX NSCLC", "result": "> 100", "unit": "µM"}, {"measurement": "TGI", "setting": "HCC-2998 colon", "result": "> 100", "unit": "µM"}, {"measurement": "TGI", "setting": "HCT-116 colon", "result": "> 100", "unit": "µM"}, {"measurement": "TGI", "setting": "HCT-15 colon", "result": "> 100", "unit": "µM"}, {"measurement": "TGI", "setting": "HL-60(TB) leukemia", "result": "> 100", "unit": "µM"}, {"measurement": "TGI", "setting": "HOP-62 NSCLC", "result": "> 100", "unit": "µM"}, {"measurement": "TGI", "setting": "HOP-92 NSCLC", "result": "> 20.1", "unit": "µM"}, {"measurement": "GI50", "setting": "HS 578T breast", "result": "> 100", "unit": "µM"}, {"measurement": "TGI", "setting": "HS 578T breast", "result": "> 100", "unit": "µM"}, {"measurement": "TGI", "setting": "HT29 colon", "result": "> 100", "unit": "µM"}, {"measurement": "TGI", "setting": "IGROV1 ovarian", "result": "> 100", "unit": "µM"}, {"measurement": "TGI", "setting": "K-562 leukemia", "result": "> 100", "unit": "µM"}, {"measurement": "TGI", "setting": "KM12 colon", "result": "> 100", "unit": "µM"}, {"measurement": "TGI", "setting": "LOX IMVI melanoma", "result": "> 100", "unit": "µM"}, {"measurement": "TGI", "setting": "M14 melanoma", "result": "> 100", "unit": "µM"}, {"measurement": "TGI", "setting": "MALME-3M melanoma", "result": "> 100", "unit": "µM"}, {"measurement": "TGI", "setting": "MCF7 breast", "result": "> 100", "unit": "µM"}, {"measurement": "TGI", "setting": "MDA-MB-231 breast", "result": "> 100", "unit": "µM"}, {"measurement": "TGI", "setting": "MDA-MB-435", "result": "> 100", "unit": "µM"}, {"measurement": "TGI", "setting": "MDA-N", "result": "> 100", "unit": "µM"}, {"measurement": "TGI", "setting": "MOLT-4 leukemia", "result": "> 100", "unit": "µM"}, {"measurement": "TGI", "setting": "NCI-H226 lung", "result": "> 100", "unit": "µM"}, {"measurement": "TGI", "setting": "NCI-H23 lung", "result": "> 100", "unit": "µM"}, {"measurement": "TGI", "setting": "NCI-H460 lung", "result": "> 100", "unit": "µM"}, {"measurement": "TGI", "setting": "NCI-H522 lung", "result": "> 100", "unit": "µM"}, {"measurement": "TGI", "setting": "NCI/ADR-RES ovarian", "result": "> 100", "unit": "µM"}, {"measurement": "TGI", "setting": "OVCAR-3 ovarian", "result": "> 100", "unit": "µM"}, {"measurement": "TGI", "setting": "OVCAR-4 ovarian", "result": "> 100", "unit": "µM"}, {"measurement": "TGI", "setting": "OVCAR-5 ovarian", "result": "> 100", "unit": "µM"}, {"measurement": "TGI", "setting": "OVCAR-8 ovarian", "result": "> 100", "unit": "µM"}, {"measurement": "TGI", "setting": "PC-3 prostate", "result": "> 100", "unit": "µM"}, {"measurement": "GI50", "setting": "RPMI-8226 leukemia", "result": 36.1, "unit": "µM"}, {"measurement": "TGI", "setting": "RPMI-8226 leukemia", "result": "> 100", "unit": "µM"}, {"measurement": "TGI", "setting": "RXF 393 renal", "result": "> 100", "unit": "µM"}, {"measurement": "TGI", "setting": "SF-268 CNS", "result": "> 100", "unit": "µM"}, {"measurement": "TGI", "setting": "SF-295 CNS", "result": "> 100", "unit": "µM"}, {"measurement": "TGI", "setting": "SF-539 CNS", "result": "> 100", "unit": "µM"}, {"measurement": "TGI", "setting": "SK-MEL-2 melanoma", "result": "> 66", "unit": "µM"}, {"measurement": "TGI", "setting": "SK-MEL-28 melanoma", "result": "> 100", "unit": "µM"}, {"measurement": "TGI", "setting": "SK-MEL-5 melanoma", "result": "> 100", "unit": "µM"}, {"measurement": "TGI", "setting": "SK-OV-3 ovarian", "result": "> 100", "unit": "µM"}, {"measurement": "TGI", "setting": "SN12C renal", "result": "> 100", "unit": "µM"}, {"measurement": "TGI", "setting": "SNB-19 CNS", "result": "> 100", "unit": "µM"}, {"measurement": "TGI", "setting": "SNB-75 CNS", "result": 99, "unit": "µM"}, {"measurement": "TGI", "setting": "SR leukemia", "result": "> 100", "unit": "µM"}, {"measurement": "TGI", "setting": "SW-620 colon", "result": "> 100", "unit": "µM"}, {"measurement": "TGI", "setting": "T-47D breast", "result": "> 100", "unit": "µM"}, {"measurement": "TGI", "setting": "TK-10 renal", "result": "> 100", "unit": "µM"}, {"measurement": "TGI", "setting": "U251 CNS", "result": "> 100", "unit": "µM"}, {"measurement": "TGI", "setting": "UACC-257 melanoma", "result": "> 100", "unit": "µM"}, {"measurement": "TGI", "setting": "UACC-62 melanoma", "result": "> 100", "unit": "µM"}]}]}
